Tests used:
Assay type in all cases: cell-based
[1] = system: Streptococcus mutans biofilms; assay: 1 day biofilm test with Azithromycine, Indocyanine Green and light; settings: 15 μg with Indocyanine Green
Method: A further series of tests was carried out for Streptococcus mutans biofilms using Azithromycine (15 μg) and Indocyanine Green using light at 100 J/cm^2. For 1 day biofilms, the CFU was on an average <1 after treatment with dual light of 405 nm and 810 nm, respectively (at ratios of 3:1 to 1:3), whereas for either 405 nm or 810 nm wavelength light alone, the CFU was on an average below 100 after 1 day. For Azithromycine and Indocyanine Green without light, the CFU was about 1E06 to 1E07 after 1 day.

[2] = system: planktonic Streptococcus mutans; assay: Planktonic bacteria test, light activation of doxycycline
Source text: FIG. 2 is a bar chart showing bacteria growth of Streptococcus mutans for four different treatments, illustrating the effect of light activation of doxycycline against planktonic Streptococcus mutans; FIG. 2 is a bar chart showing light activation of doxycycline at 405 nm in a planktonic bacteria test. […] 100 J of antibacterial blue light had minor reduction in CFU compared to non-exposed control.

[3] = system: Streptococcus mutans 4 day biofilm; assay: 4-day biofilm effectivity test, colony formation (CFU)
Source text: FIG. 3 is a bar chart showing a comparison of the doxycycline effect with light excitations of 405 nm, dual-light (810 nm & 405 nm) and 370 nm to Streptococcus mutans colony formation in 4 day biofilm model; FIG. 4 is a bar chart showing the doxycycline effect against Streptococcus mutans 4 day biofilm for light excitation using a combination of light of 405 nm and 810 nm (“dual-light”) together with an ICG sensitizer, compared with light of 810 nm together with an ICG sensitizer (“doxy+aPDT”) and with 405 nm light without ICG sensitizer (“405”). A control of doxycycline is given as a reference; and […] is a bar chart showing a comparison of doxycycline effect with light excitations of […] on Streptococcus mutans colony formation in a 4-day biofilm effectivity test. FIG. 4 gives the CFU:s for Streptococcus mutans colonies on petri dishes after 4-day treatments, repeated 6 times with identical treatment and growth parameters, for four series of tests. The first (non-existent) bar represents the CFU:s for S. mutans colonies doxycycline which had been treated with doxycycline (30 μg) and dual light of 405 nm and 810 nm together with Indocyanine Green. The energy intensity of the light was 100 J/cm^2. […]

[4] = Antibiotic susceptibility test (doxycycline disc on petri dishes, with or without light)
Source text: Antibiotic Susceptibility Test Each test was repeated 3 times with identical treatment and growth parameters. The calculated CFU:s for 100 J/cm^2 treated doxycycline disc results are shown in table 1 and representing image of difference between treated and non-treated doxy petri dish are shown in FIG. 1. […] Starting from the left is the doxycycline inhibition effect in dark, in the middle the resulting petri dish with 405 nm and 810 nm exposure and on the right side the petri dish with 405 nm excitation is shown.

| SMILES | CFU on an average ([1]; 405 nm light alone, 100 J/cm^2, 1 day) | CFU on an average ([1]; 810 nm light alone, 100 J/cm^2, 1 day) | CFU on an average ([1]; dual light 405 nm and 810 nm (ratios 3:1 to 1:3), 100 J/cm^2, 1 day biofilms) | bacteria growth ([2]; doxycycline without light) | bactericidal effect, bacteria killing ([2]; light activated at 405 nm) | improvement of antibacterial light effect with the addition of doxycycline ([3]; 370 nm light) | improvement of antibacterial light effect with the addition of doxycycline ([3]; 405 nm light) | Regression diameter ([4]; 44 J/cm^2 405 nm + 60 J/cm^2 810 nm) | Regression diameter ([4]; 83 J/cm^2 405 nm) | Regression diameter ([4]; no light, disc test, repeated 3 times) |
| --- | --- | --- | --- | --- | --- | --- | --- | --- | --- | --- |
| CC[C@H]1OC(=O)[C@H](C)[C@@H](O[C@H]2C[C@@](C)(OC)[C@@H](O)[C@H](C)O2)[C@H](C)[C@@H](O[C@@H]2O[C@H](C)C[C@H](N(C)C)[C@H]2O)[C@](C)(O)C[C@@H](C)CN(C)[C@H](C)[C@@H](O)[C@]1(C)O [Azithromycine] | below 100 | below 100 | < 1 |  |  |  |  |  |  |  |
| C[C@H]1c2cccc(O)c2C(=O)C2=C(O)[C@]3(O)C(=O)C(C(N)=O)=C(O)[C@@H](N(C)C)[C@@H]3[C@@H](O)[C@@H]21 [doxycycline] |  |  |  | ≥ 10^7 CFU | over 3 log | over 1.5 log | over 1.5 log | 29,66666667 | 30,33333 | 26,33333 |

Reference: patent publication US12161719B2, “Method of enhancing the antimicrobial action of systemically administered antibiotics” (Koite Health Oy, priority 2019, dated 2024)
